Assay results reported in PMC5746060, “General and Modular Strategy for Designing Potent, Selective, and Pharmacologically Compliant Inhibitors of Rhomboid Proteases” (Cell Chemical Biology, 2017).
Starred links: 1 amine or outer side, 2 acyl side, 3 side chain; linkers in the order of their positions; H or OH if unused. Non-standard residues stand in square brackets, D forms with d. Residues, ends and D or L forms follow the SMILES beside them. *: point of attachment. NH(4-phenylbutyl) = c1ccc(CCCCN*)cc1; X1 = C[C@H](N[*:1])C(=O)C(=O)[*:2]; NHPhenethyl = c1ccc(CCN*)cc1

What was measured:
EcGlpG = molecular target: T1, EcGlpG (Escherichia coli, UniProt P09391); test: activity-based probe competition assay, rhomboid panel; format: biochemical, E. coli; settings: 50 μM and 0.5 μM; outcompeted the ABP even at 500 nM
T1 construct: made in house; host or cells: E. coli C41(DE3)
Text: (§1) Any enzyme inhibitors to be used as specific tools for cell biology or as starting points for drug development must show sufficient level of selectivity toward their intended target. This is particularly important for compounds that react with the catalytic nucleophile common to many serine hydrolases. […] To map the selectivity of peptidyl ketoamides more objectively and widely, we employed activity-based probe (ABP) competition assays that enable a more general and substrate-independent measurement of inhibitory potency, because they rely solely on the competition between a fluorescently labeled activity-based probe and the tested inhibitor ([Nguyen et al., 2015], [Serim et al., 2012]). […]
(§2) Figure 5 Selectivity of Peptidyl Ketoamides (A) Selectivity of compounds 9, 10, and 11 for nine rhomboid proteases was profiled using activity-based probe competition assay at 50 μM and 0.5 μM concentration. […] (B) Selectivity of compounds 9, 10, and 11 against human serine hydrolases was analyzed using EnPlex as described ([Bachovchin et al., 2014]).
(§3) For inhibitor selectivity profiling against rhomboid proteases ([Wolf et al., 2015]), 400 ng of a purified protein preparation of E. coli GlpG was diluted in 30 μL of reaction buffer (20 mM HEPES, pH 7.4, with 0.05% (w/v) DDM). […] Gels were scanned on a Typhoon Trio+ and analyzed using ImageJ. […]

AaROM = test: as above; format: biochemical, Aquifex aeolicus; settings: 50 μM and 0.5 μM
Text: as §1, §2, §3

[1] = molecular target: dipeptidylpeptidase 7 (DPP7) (Homo sapiens, UniProt Q9UHL4); test: EnPlex multiplex ABP competition profiling; format: biochemical; settings: off-target hit; concentration range where they inhibit rhomboid proteases
Method: Figure 5 Selectivity of Peptidyl Ketoamides (A) Selectivity of compounds 9, 10, and 11 for nine rhomboid proteases was profiled using activity-based probe competition assay at 50 μM and 0.5 μM concentration. The upper limit of enzyme concentration was 0.4 μM. (B) Selectivity of compounds 9, 10, and 11 against human serine hydrolases was analyzed using EnPlex as described ([Bachovchin et al., 2014]).
We next examined peptidyl ketoamides for their possible off-target effects on other serine proteases. To get a representative picture of the selectivity of peptidyl ketoamides, we employed a recently developed EnPlex technology, which allows multiplex analysis of ABP competition with about 100 human serine hydrolases, mostly proteases ([Bachovchin et al., 2014]).
For inhibitor selectivity profiling against rhomboid proteases ([Wolf et al., 2015]), 400 ng of a purified protein preparation of E. coli GlpG was diluted in 30 μL of reaction buffer (20 mM HEPES, pH 7.4, with 0.05% (w/v) DDM). For other rhomboids, amounts were taken that gave similar labeling intensity during profiling. Rhomboids were incubated for 30 min at room temperature with the indicated concentration of compound, 100 μM DCI as positive control, or an equal volume of DMSO as negative control. Next, TAMRA-FP serine hydrolase probe (Thermo Fisher #88318) was added to a final concentration of 1 ìM and incubated for 2 h at 37°C in the dark. The reaction was stopped by addition of 4× Laemmli buffer and the reaction mixture was resolved on 15% SDS-PAGE. Gels were scanned on a Typhoon Trio+ and analyzed using ImageJ. The intensity of each rhomboid protease band calculated by ImageJ was normalized against its corresponding DMSO-treated counterpart (100% activity) to indicate the residual activity left after inhibition. The remaining activity was used to calculate the percentage of inhibition depicted in the heatmap. Selectivity profiles against human serine hydrolases were determined by EnPlex as described previously ([Bachovchin et al., 2014]).

endogenous YqgP = molecular target: T2, endogenous YqgP (Bacillus subtilis, UniProt P54493); test: inhibition of endogenous YqgP in live B. subtilis (LacYTM2 substrate cleavage, western blot); format: cell-based, Bacillus subtilis 168; settings: for % substrate conversion: YqgP WT (BS87)
T2 construct: cleaved to about 75% conversion by the endogenous YqgP; endogenous in cells; host or cells: Bacillus subtilis 168 ydcA::neo, xkdE::substrate (BS87)
Method: The substrate MBP-FLAG-LacYTM2-Trx ([Strisovsky et al., 2009]) was expressed in wild-type E. coli NR698 with genetically permeabilized outer membrane ([Ruiz et al., 2005]) in the presence of increasing concentrations of inhibitors as described in STAR Methods. Substrate cleavage was measured in cell lysates by immunoblotting for FLAG and quantified using near-infrared fluorescence. The reported in vivo IC50 values are best-fit means with SD representative of 2–3 measurements. DMSO, dimethylsulfoxide vehicle control; KO, E. coli glpG::tet. […] The substrate AmyESP-MBP-FLAG-LacYTM2-Trx-HA was expressed in Bacillus subtilis 168 (ydcA::neo, xdkE::AmyESP-MBP-LacYTM2-Trx(erm, lin)) (BS87) in the presence of increasing concentrations of inhibitors as described in STAR Methods. Substrate cleavage was detected in cell lysates by immunoblotting for FLAG and detection by near-infrared fluorescence. […] This treatment was necessary because the specific cleavage product could not be resolved sufficiently well from the non-specific bands to be integrated separately. DMSO, dimethylsulfoxide vehicle control; YqgP KO, Bacillus subtilis 168 (ydcA::neo, yqgP::tet, xdkE::AmyESP-MBP-LacYTM2-Trx(erm, lin)) (BS88).
We then extended the range of organisms to Bacillus subtilis, a representative of Gram-positive bacteria, which have a thick cell wall and include major pathogens such as Staphylococcus, Listeria, Streptococcus, and others. Since the endogenous substrate of the B. subtilis rhomboid protease YqgP is unknown, and no robust and rescuable phenotypes have been reported for YqgP, we focused on inhibition of cleavage of a model substrate.
For measuring the inhibition of YqgP in vivo, the B. subtilis strains BS87 and its yqgP knock-out derivative BS88, generated in this work (see Constructs and Cloning section), were used as follows. The chimeric LacYTM2 substrate AmyEsp-MBP-FLAG-LacYTM2-Trx-HA (this work) was expressed under control of xylose promoter from the xdkE genomic locus. Fresh LB medium, supplemented with appropriate antibiotic, was inoculated with a few colonies of the B. subtilis strain grown overnight on selective LB agar plate and pre-culture was grown for 2 h at 37°C to OD600 = 1. Pre-culture was then diluted with fresh LB medium to the density of OD600 = 0.05. At this point, the expression of LacYTM2 was induced by adding 1% (w/v) D-(+)-xylose (Sigma), rhomboid inhibitors were added at a range of concentrations, and the cultures were further incubated for 2.5 h at 37°C (reaching OD600 ∼ 1). Steady-state conversion of the substrate was evaluated by western blotting with near-infrared fluorescence detection as described ([Ticha et al., 2017]), substracting the intensity of non-specific bands, closely co-migrating with the specific rhomboid-formed N-terminal cleavage product of the substrate.

T2 sequence (P54493 whole entry): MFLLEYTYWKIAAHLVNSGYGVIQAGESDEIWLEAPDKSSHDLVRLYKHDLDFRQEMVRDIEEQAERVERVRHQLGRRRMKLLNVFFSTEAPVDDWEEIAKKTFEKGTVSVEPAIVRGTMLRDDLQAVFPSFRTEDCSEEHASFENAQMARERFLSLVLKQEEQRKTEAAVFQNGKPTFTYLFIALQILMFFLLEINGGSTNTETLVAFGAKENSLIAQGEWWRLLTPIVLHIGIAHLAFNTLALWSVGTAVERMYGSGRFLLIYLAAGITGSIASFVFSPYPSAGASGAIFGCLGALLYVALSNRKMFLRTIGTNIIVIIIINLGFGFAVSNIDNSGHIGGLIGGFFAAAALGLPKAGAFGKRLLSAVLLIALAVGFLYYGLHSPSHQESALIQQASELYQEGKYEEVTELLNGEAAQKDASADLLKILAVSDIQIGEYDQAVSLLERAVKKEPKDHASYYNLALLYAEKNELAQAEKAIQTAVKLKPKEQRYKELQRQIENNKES
T1 sequence (P09391 whole entry): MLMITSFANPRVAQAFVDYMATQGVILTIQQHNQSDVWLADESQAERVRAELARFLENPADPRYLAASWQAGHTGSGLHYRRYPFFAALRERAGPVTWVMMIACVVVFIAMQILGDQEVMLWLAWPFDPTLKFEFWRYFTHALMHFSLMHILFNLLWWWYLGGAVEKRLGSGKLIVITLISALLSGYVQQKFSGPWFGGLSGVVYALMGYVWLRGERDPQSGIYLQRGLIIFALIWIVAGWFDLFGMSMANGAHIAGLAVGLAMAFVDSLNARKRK

Row | SMILES | competition with ABP labeling of EcGlpG (EcGlpG) | competition with ABP labeling of AaROM (AaROM) | inhibition of DPP7 (EnPlex) [1] | IC50 (endogenous YqgP) | % substrate conversion (endogenous YqgP; 0.6 nM compound 11) | % substrate conversion (endogenous YqgP; 1.2 nM compound 11) | % substrate conversion (endogenous YqgP; 2.5 nM compound 11) | % substrate conversion (endogenous YqgP; 5 nM compound 11) | % substrate conversion (endogenous YqgP; 10 nM compound 11) | % substrate conversion (endogenous YqgP; 20 nM compound 11) | % substrate conversion (endogenous YqgP; 50 nM compound 11) | inhibition of substrate cleavage (endogenous YqgP; 50 nM in growth media)
1 | CC(=O)N[C@@H](CCCNC(=N)N)C(=O)N[C@H](C(=O)N[C@@H](CCCNC(=N)N)C(=O)N[C@@H](Cc1c[nH]cn1)C(=O)N[C@@H](C)C(=O)C(=O)NCCc1ccccc1)C(C)C [compound 9, Ac-RVRHA-CONH-phenylethyl] (Ac-RVRH[X1]-NHPhenethyl) | potently competed | none of these compounds were able to compete | the sequence related dipeptidylpeptidase 7 (DPP7) | – | – | – | – | – | – | – | – | –
2 | CC(=O)N[C@@H](CCCNC(=N)N)C(=O)N[C@H](C(=O)N[C@@H](CCCNC(=N)N)C(=O)N[C@@H](Cc1c[nH]cn1)C(=O)N[C@@H](C)C(=O)C(=O)NCCCCc1ccccc1)C(C)C [compound 11, Ac-RVRHA-CONH-phenylbutyl] (Ac-RVRH[X1]-{NH(4-phenylbutyl)}) | potently competed | none of these compounds were able to compete | the sequence related dipeptidylpeptidase 7 (DPP7) | 5 to 10 nM | 73% | 67% | 54% | 52% | 7% | 4% | 0% | completely inhibited
